# Assay results as given in PubChem BioAssay (NCI).
#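 Each compound was tested at five concentrations against cells in 96-well plates for 48 hours. GI50: concentration for 50% inhibition of growth. TGI is the concentration that stops growth completely.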
# Tests used:
# Test in all cases: NCI-60 cell line screen, 48 h
# UACC-257 melanoma = tested on: UACC-257 melanoma
# SK-MEL-5 melanoma = tested on: SK-MEL-5 melanoma
# IGROV1 ovarian = tested on: IGROV1 ovarian
# MCF7 breast = tested on: MCF7 breast
# TK-10 renal = tested on: TK-10 renal
# HT29 colon = tested on: HT29 colon
# 786-0 renal = tested on: 786-0 renal
# HCT-15 colon = tested on: HCT-15 colon
# NCI/ADR-RES ovarian = tested on: NCI/ADR-RES ovarian
# SNB-19 CNS = tested on: SNB-19 CNS
# HOP-92 NSCLC = tested on: HOP-92 NSCLC
# MOLT-4 leukemia = tested on: MOLT-4 leukemia
# SK-MEL-2 melanoma = tested on: SK-MEL-2 melanoma
# CAKI-1 renal = tested on: CAKI-1 renal
# M14 melanoma = tested on: M14 melanoma
# NCI-H23 lung = tested on: NCI-H23 lung
# A549 NSCLC = tested on: A549 NSCLC
# EKVX NSCLC = tested on: EKVX NSCLC
# COLO 205 colon = tested on: COLO 205 colon
# HS 578T breast = tested on: HS 578T breast
# PC-3 prostate = tested on: PC-3 prostate
# MALME-3M melanoma = tested on: MALME-3M melanoma
# ACHN renal = tested on: ACHN renal
# UO-31 renal = tested on: UO-31 renal
# SK-MEL-28 melanoma = tested on: SK-MEL-28 melanoma
# SW-620 colon = tested on: SW-620 colon
# NCI-H522 lung = tested on: NCI-H522 lung
# RXF 393 renal = tested on: RXF 393 renal
# DU-145 prostate = tested on: DU-145 prostate
# SR leukemia = tested on: SR leukemia
# SN12C renal = tested on: SN12C renal
# NCI-H460 lung = tested on: NCI-H460 lung
# SF-539 CNS = tested on: SF-539 CNS
# BT-549 breast = tested on: BT-549 breast
# OVCAR-4 ovarian = tested on: OVCAR-4 ovarian
# HL-60(TB) leukemia = tested on: HL-60(TB) leukemia
# OVCAR-3 ovarian = tested on: OVCAR-3 ovarian
# LOX IMVI melanoma = tested on: LOX IMVI melanoma
# HCC-2998 colon = tested on: HCC-2998 colon
# K-562 leukemia = tested on: K-562 leukemia
# OVCAR-8 ovarian = tested on: OVCAR-8 ovarian
# KM12 colon = tested on: KM12 colon
# MDA-MB-231 breast = tested on: MDA-MB-231 breast
# OVCAR-5 ovarian = tested on: OVCAR-5 ovarian
# RPMI-8226 leukemia = tested on: RPMI-8226 leukemia
# U251 CNS = tested on: U251 CNS
# A498 renal = tested on: A498 renal
# UACC-62 melanoma = tested on: UACC-62 melanoma
# SF-295 CNS = tested on: SF-295 CNS
# SK-OV-3 ovarian = tested on: SK-OV-3 ovarian
# CCRF-CEM leukemia = tested on: CCRF-CEM leukemia
# SNB-75 CNS = tested on: SNB-75 CNS
# SF-268 CNS = tested on: SF-268 CNS
# HCT-116 colon = tested on: HCT-116 colon
# NCI-H226 lung = tested on: NCI-H226 lung
# T-47D breast = tested on: T-47D breast
# HOP-62 NSCLC = tested on: HOP-62 NSCLC
# MDA-MB-435 = tested on: MDA-MB-435
structure (smiles),measurement,setting,value
C=CC(=O)N1C[C@H](COc2nc(Nc3cnn(C)c3)nc3[nH]cc(Cl)c23)[C@@H](OC)C1,GI50,UACC-257 melanoma,6.64 µM
same,TGI,UACC-257 melanoma,28 µM
same,GI50,SK-MEL-5 melanoma,11.5 µM
same,TGI,SK-MEL-5 melanoma,23.6 µM
same,GI50,IGROV1 ovarian,0.438 µM
same,TGI,IGROV1 ovarian,2.79 µM
same,GI50,MCF7 breast,1.22 µM
same,TGI,MCF7 breast,13.8 µM
same,GI50,TK-10 renal,1.16 µM
same,TGI,TK-10 renal,10.6 µM
same,GI50,HT29 colon,5.24 µM
same,TGI,HT29 colon,48.6 µM
same,GI50,786-0 renal,1.96 µM
same,TGI,786-0 renal,29.6 µM
same,GI50,HCT-15 colon,4.74 µM
same,TGI,HCT-15 colon,24.3 µM
same,GI50,NCI/ADR-RES ovarian,18 µM
same,TGI,NCI/ADR-RES ovarian,65.3 µM
same,GI50,SNB-19 CNS,3.41 µM
same,TGI,SNB-19 CNS,16.2 µM
same,GI50,HOP-92 NSCLC,1.25 µM
same,TGI,HOP-92 NSCLC,4.87 µM
same,GI50,MOLT-4 leukemia,2.02 µM
same,TGI,MOLT-4 leukemia,37.9 µM
same,GI50,SK-MEL-2 melanoma,11.5 µM
same,TGI,SK-MEL-2 melanoma,25.7 µM
same,GI50,CAKI-1 renal,1 µM
same,TGI,CAKI-1 renal,3.67 µM
same,GI50,M14 melanoma,4.49 µM
same,TGI,M14 melanoma,20.3 µM
same,GI50,NCI-H23 lung,4.1 µM
same,TGI,NCI-H23 lung,18.9 µM
same,GI50,A549 NSCLC,2.8 µM
same,TGI,A549 NSCLC,14.8 µM
same,GI50,EKVX NSCLC,1.23 µM
same,TGI,EKVX NSCLC,8.55 µM
same,GI50,COLO 205 colon,2.83 µM
same,TGI,COLO 205 colon,14.6 µM
same,GI50,HS 578T breast,1.01 µM
same,TGI,HS 578T breast,4.31 µM
same,GI50,PC-3 prostate,3.98 µM
same,TGI,PC-3 prostate,55.3 µM
same,GI50,MALME-3M melanoma,10.9 µM
same,TGI,MALME-3M melanoma,24.4 µM
same,GI50,ACHN renal,0.993 µM
same,TGI,ACHN renal,13.3 µM
same,GI50,UO-31 renal,1.55 µM
same,TGI,UO-31 renal,11 µM
same,GI50,SK-MEL-28 melanoma,8.43 µM
same,TGI,SK-MEL-28 melanoma,25.9 µM
same,GI50,SW-620 colon,1.15 µM
same,TGI,SW-620 colon,16.2 µM
same,GI50,NCI-H522 lung,0.431 µM
same,TGI,NCI-H522 lung,17.6 µM
same,GI50,RXF 393 renal,0.509 µM
same,TGI,RXF 393 renal,2.88 µM
same,GI50,DU-145 prostate,1.45 µM
same,TGI,DU-145 prostate,15.4 µM
same,GI50,SR leukemia,0.65 µM
same,TGI,SR leukemia,> 100 µM
same,GI50,SN12C renal,2.29 µM
same,TGI,SN12C renal,15.7 µM
same,GI50,NCI-H460 lung,4.13 µM
same,TGI,NCI-H460 lung,18.6 µM
same,GI50,SF-539 CNS,1.28 µM
same,TGI,SF-539 CNS,4.61 µM
same,GI50,BT-549 breast,0.992 µM
same,TGI,BT-549 breast,8.34 µM
same,GI50,OVCAR-4 ovarian,2.15 µM
same,TGI,OVCAR-4 ovarian,14.1 µM
same,GI50,HL-60(TB) leukemia,3.31 µM
same,TGI,HL-60(TB) leukemia,13 µM
same,GI50,OVCAR-3 ovarian,2.28 µM
same,TGI,OVCAR-3 ovarian,18 µM
same,GI50,LOX IMVI melanoma,0.894 µM
same,TGI,LOX IMVI melanoma,12.2 µM
same,GI50,HCC-2998 colon,5.47 µM
same,TGI,HCC-2998 colon,19.4 µM
same,GI50,K-562 leukemia,4.75 µM
same,TGI,K-562 leukemia,> 100 µM
same,GI50,OVCAR-8 ovarian,4.74 µM
same,TGI,OVCAR-8 ovarian,24.5 µM
same,GI50,KM12 colon,0.342 µM
same,TGI,KM12 colon,14 µM
same,GI50,MDA-MB-231 breast,2.84 µM
same,TGI,MDA-MB-231 breast,16.1 µM
same,GI50,OVCAR-5 ovarian,3.18 µM
same,TGI,OVCAR-5 ovarian,48.4 µM
same,GI50,RPMI-8226 leukemia,3.29 µM
same,TGI,RPMI-8226 leukemia,22.7 µM
same,GI50,U251 CNS,0.991 µM
same,TGI,U251 CNS,17.5 µM
same,GI50,A498 renal,0.26 µM
same,TGI,A498 renal,1.14 µM
same,GI50,UACC-62 melanoma,2.89 µM
same,TGI,UACC-62 melanoma,14.3 µM
same,GI50,SF-295 CNS,11.6 µM
same,TGI,SF-295 CNS,24.2 µM
same,GI50,SK-OV-3 ovarian,0.225 µM
same,TGI,SK-OV-3 ovarian,1.2 µM
same,GI50,CCRF-CEM leukemia,0.635 µM
same,TGI,CCRF-CEM leukemia,> 100 µM
same,GI50,SNB-75 CNS,0.357 µM
same,TGI,SNB-75 CNS,2.42 µM
same,GI50,SF-268 CNS,0.965 µM
same,TGI,SF-268 CNS,15.5 µM
same,GI50,HCT-116 colon,1.24 µM
same,TGI,HCT-116 colon,14.3 µM
same,GI50,NCI-H226 lung,0.97 µM
same,TGI,NCI-H226 lung,21.7 µM
same,GI50,T-47D breast,2.01 µM
same,TGI,T-47D breast,17.6 µM
same,GI50,HOP-62 NSCLC,4.12 µM
same,TGI,HOP-62 NSCLC,28.5 µM
same,GI50,MDA-MB-435,3 µM
same,TGI,MDA-MB-435,16.4 µM
